Data published in patent US10905123B2, “Herbicidal compounds” (Syngenta Participations AG, priority 2015, dated 2021).

What was measured:
Assay type in all cases: in vivo
Conditions in all cases: Rate 1000 g/ha; evaluated after 13 days
Setaria faberi (SETFA) [1] = experiment: B1a pre-emergence herbicidal activity
Protocol: (§1) Seeds of a variety of test species were sown in standard soil in pots: Amaranthus retroflexus (AMARE), Setaria faberi (SETFA), Zea mays (ZEAMX), Abutilon threophrasti (ABUTH), Echinochloa crus-galli (ECHCG), Lolium perenne (LOLPE). After cultivation for one day (pre-emergence) under controlled conditions in a glasshouse (at 24/16° C., day/night; 14 hours light; 65% humidity), the plants were sprayed with an aqueous spray solution derived from the formulation of the technical active ingredient in acetone/water (50:50) solution containing 0.5% Tween 20 (polyoxyethelyene sorbitan monolaurate, CAS RN 9005-64-5). The test plants were then grown in a glasshouse under controlled conditions (at 24/16° C., day/night; 14 hours light; 65% humidity) and watered twice daily. After 13 days, the test was evaluated (5=total damage to plant; 0=no damage to plant). Results are shown below in Table 4

[2] = tested on: Amaranthus retroflexus (AMARE); experiment: B1a pre-emergence herbicidal activity
Protocol: as §1

Lolium perenne (LOLPE) [3] = experiment: B1a pre-emergence herbicidal activity
Protocol: as §1

[4] = tested on: Echinochloa crus-galli (ECHCG); experiment: B1a pre-emergence herbicidal activity
Protocol: as §1

[5] = tested on: Abutilon threophrasti (ABUTH); experiment: B1a pre-emergence herbicidal activity
Protocol: as §1

Zea mays (ZEAMX) [6] = experiment: B1a pre-emergence herbicidal activity
Protocol: as §1

Setaria faberi (SETFA) [7] = experiment: B2a post-emergence herbicidal activity
Protocol: (§2) Seeds of a variety of test species were sown in standard soil in pots: Amaranthus retroflexus (AMARE), Setaria faberi (SETFA), Zea mays (ZEAMX), Abutilon threophrasti (ABUTH), Echinochloa crus-galli (ECHCG), Lolium perenne (LOLPE). After 8 days cultivation (post-emergence) under controlled conditions in a glasshouse (at 24/16° C., day/night; 14 hours light; 65% humidity), the plants were sprayed with an aqueous spray solution derived from the formulation of the technical active ingredient in acetone/I water (50:50) solution containing 0.5% Tween 20 (polyoxyethelyene sorbitan monolaurate, CAS RN 9005-64-5). The test plants were then grown in a glasshouse under controlled conditions (at 24/16° C., day/night; 14 hours light; 65% humidity) and watered twice daily. After 13 days, the test was evaluated (5=total damage to plant; 0=no damage to plant).

[8] = tested on: Amaranthus retroflexus (AMARE); experiment: B2a post-emergence herbicidal activity
Protocol: as §2

Lolium perenne (LOLPE) [9] = experiment: B2a post-emergence herbicidal activity
Protocol: as §2

[10] = tested on: Echinochloa crus-galli (ECHCG); experiment: B2a post-emergence herbicidal activity
Protocol: as §2

[11] = tested on: Abutilon threophrasti (ABUTH); experiment: B2a post-emergence herbicidal activity
Protocol: as §2

Zea mays (ZEAMX) [12] = experiment: B2a post-emergence herbicidal activity
Protocol: as §2

Lolium perenne (LOLPE) [13] = experiment: B1 pre-emergence herbicidal activity
Protocol: as §1, with “Triticum aestivium (TRZAW), Oryza sativa (ORYSA), Avena fatua (AVEFA), Alopecurus myosuroides (ALOMY),” for “Amaranthus retroflexus (AMARE), Setaria faberi (SETFA), Zea mays (ZEAMX), Abutilon threophrasti (ABUTH),”, “plant).” for “plant). Results are shown below in Table 4”

Avena fatua (AVEFA) [14] = experiment: B1 pre-emergence herbicidal activity
Protocol: as §1, with “Triticum aestivium (TRZAW), Oryza sativa (ORYSA), Avena fatua (AVEFA), Alopecurus myosuroides (ALOMY),” for “Amaranthus retroflexus (AMARE), Setaria faberi (SETFA), Zea mays (ZEAMX), Abutilon threophrasti (ABUTH),”, “plant).” for “plant). Results are shown below in Table 4”

[15] = tested on: Echinochloa crus-galli (ECHCG); experiment: B1 pre-emergence herbicidal activity
Protocol: as §1, with “Triticum aestivium (TRZAW), Oryza sativa (ORYSA), Avena fatua (AVEFA), Alopecurus myosuroides (ALOMY),” for “Amaranthus retroflexus (AMARE), Setaria faberi (SETFA), Zea mays (ZEAMX), Abutilon threophrasti (ABUTH),”, “plant).” for “plant). Results are shown below in Table 4”

[16] = tested on: Alopecurus myosuroides (ALOMY); experiment: B1 pre-emergence herbicidal activity
Protocol: as §1, with “Triticum aestivium (TRZAW), Oryza sativa (ORYSA), Avena fatua (AVEFA), Alopecurus myosuroides (ALOMY),” for “Amaranthus retroflexus (AMARE), Setaria faberi (SETFA), Zea mays (ZEAMX), Abutilon threophrasti (ABUTH),”, “plant).” for “plant). Results are shown below in Table 4”

Oryza sativa (ORYSA) [17] = experiment: B1 pre-emergence herbicidal activity
Protocol: as §1, with “Triticum aestivium (TRZAW), Oryza sativa (ORYSA), Avena fatua (AVEFA), Alopecurus myosuroides (ALOMY),” for “Amaranthus retroflexus (AMARE), Setaria faberi (SETFA), Zea mays (ZEAMX), Abutilon threophrasti (ABUTH),”, “plant).” for “plant). Results are shown below in Table 4”

[18] = tested on: Triticum aestivium (TRZAW); experiment: B1 pre-emergence herbicidal activity
Protocol: as §1, with “Triticum aestivium (TRZAW), Oryza sativa (ORYSA), Avena fatua (AVEFA), Alopecurus myosuroides (ALOMY),” for “Amaranthus retroflexus (AMARE), Setaria faberi (SETFA), Zea mays (ZEAMX), Abutilon threophrasti (ABUTH),”, “plant).” for “plant). Results are shown below in Table 4”

Lolium perenne (LOLPE) [19] = experiment: B2 post-emergence herbicidal activity
Protocol: as §2, with “Triticum aestivium (TRZAW), Oryza sativa (ORYSA), Avena fatua (AVEFA), Alopecurus myosuroides (ALOMY),” for “Amaranthus retroflexus (AMARE), Setaria faberi (SETFA), Zea mays (ZEAMX), Abutilon threophrasti (ABUTH),”, “acetone/water” for “acetone/I water”

Avena fatua (AVEFA) [20] = experiment: B2 post-emergence herbicidal activity
Protocol: as §2, with “Triticum aestivium (TRZAW), Oryza sativa (ORYSA), Avena fatua (AVEFA), Alopecurus myosuroides (ALOMY),” for “Amaranthus retroflexus (AMARE), Setaria faberi (SETFA), Zea mays (ZEAMX), Abutilon threophrasti (ABUTH),”, “acetone/water” for “acetone/I water”

[21] = tested on: Echinochloa crus-galli (ECHCG); experiment: B2 post-emergence herbicidal activity
Protocol: as §2, with “Triticum aestivium (TRZAW), Oryza sativa (ORYSA), Avena fatua (AVEFA), Alopecurus myosuroides (ALOMY),” for “Amaranthus retroflexus (AMARE), Setaria faberi (SETFA), Zea mays (ZEAMX), Abutilon threophrasti (ABUTH),”, “acetone/water” for “acetone/I water”

[22] = tested on: Alopecurus myosuroides (ALOMY); experiment: B2 post-emergence herbicidal activity
Protocol: as §2, with “Triticum aestivium (TRZAW), Oryza sativa (ORYSA), Avena fatua (AVEFA), Alopecurus myosuroides (ALOMY),” for “Amaranthus retroflexus (AMARE), Setaria faberi (SETFA), Zea mays (ZEAMX), Abutilon threophrasti (ABUTH),”, “acetone/water” for “acetone/I water”

Oryza sativa (ORYSA) [23] = experiment: B2 post-emergence herbicidal activity
Protocol: as §2, with “Triticum aestivium (TRZAW), Oryza sativa (ORYSA), Avena fatua (AVEFA), Alopecurus myosuroides (ALOMY),” for “Amaranthus retroflexus (AMARE), Setaria faberi (SETFA), Zea mays (ZEAMX), Abutilon threophrasti (ABUTH),”, “acetone/water” for “acetone/I water”

[24] = tested on: Triticum aestivium (TRZAW); experiment: B2 post-emergence herbicidal activity
Protocol: as §2, with “Triticum aestivium (TRZAW), Oryza sativa (ORYSA), Avena fatua (AVEFA), Alopecurus myosuroides (ALOMY),” for “Amaranthus retroflexus (AMARE), Setaria faberi (SETFA), Zea mays (ZEAMX), Abutilon threophrasti (ABUTH),”, “acetone/water” for “acetone/I water”

Structure (SMILES) | Control of SETFA after pre-emergence application (damage score 0-5) (Setaria faberi (SETFA) [1]) | Control of AMARE after pre-emergence application (damage score 0-5) [2] | Control of LOLPE after pre-emergence application (damage score 0-5) (Lolium perenne (LOLPE) [3]) | Control of ECHCG after pre-emergence application (damage score 0-5) [4] | Control of ABUTH after pre-emergence application (damage score 0-5) [5] | Control of ZEAMX after pre-emergence application (damage score 0-5) (Zea mays (ZEAMX) [6]) | Control of SETFA after post-emergence application (damage score 0-5) (Setaria faberi (SETFA) [7]) | Control of AMARE after post-emergence application (damage score 0-5) [8] | Control of LOLPE after post-emergence application (damage score 0-5) (Lolium perenne (LOLPE) [9]) | Control of ECHCG after post-emergence application (damage score 0-5) [10] | Control of ABUTH after post-emergence application (damage score 0-5) [11] | Control of ZEAMX after post-emergence application (damage score 0-5) (Zea mays (ZEAMX) [12]) | also measured
CCOC(=O)C(=O)N(C)c1cn(-c2cncnc2)nc1C(F)(F)F [Compound A43] | 0 | 0 | 0 | 0 | 0 | 0 | 1 | 1 | 0 | 1 | 2 | 2 | 
Cc1nn(-c2cncnc2)cc1N(C)C(=O)Nc1c(C)noc1C [Compound A45] | 0 | 0 | 0 | 0 | 0 | 0 | 0 | 0 | 0 | 0 | 0 | 0 | 
CCN(C(=O)OC(C)(C)C)c1cn(-c2cncnc2)nc1C(F)(F)F [Compound A56] |  |  |  |  |  |  |  |  |  |  |  |  | Control of LOLPE after pre-emergence application (damage score 0-5) (Lolium perenne (LOLPE) [13]): 0; Control of AVEFA after pre-emergence application (damage score 0-5) (Avena fatua (AVEFA) [14]): 0; Control of ECHCG after pre-emergence application (damage score 0-5) [15]: 1; Control of ALOMY after pre-emergence application (damage score 0-5) [16]: 0; Control of ORYSA after pre-emergence application (damage score 0-5) (Oryza sativa (ORYSA) [17]): 0; Control of TRZAW after pre-emergence application (damage score 0-5) [18]: 0; Control of LOLPE after post-emergence application (damage score 0-5) (Lolium perenne (LOLPE) [19]): 0; Control of AVEFA after post-emergence application (damage score 0-5) (Avena fatua (AVEFA) [20]): 1; Control of ECHCG after post-emergence application (damage score 0-5) [21]: 1; Control of ALOMY after post-emergence application (damage score 0-5) [22]: 1; Control of ORYSA after post-emergence application (damage score 0-5) (Oryza sativa (ORYSA) [23]): 0; Control of TRZAW after post-emergence application (damage score 0-5) [24]: 1
CC(C)(C)OC(=O)Nc1cn(-c2cccnc2)nc1Cl [Compound A57] | 0 | 0 | 0 | 0 | 0 | 1 | 3 | 1 | 1 | 2 | 1 | 2 | 
CC(C)OC(=O)Nc1cc(-c2cncnc2)nn1C(F)F [Compound A58, isopropyl N-[2-(difluoromethyl)-5-pyrimidin-5-yl-pyrazol-3-yl]carbamate] | 2 | 0 | 0 | 1 | 0 | 0 | 3 | 0 | 1 | 1 | 0 | 1 | 
CC(C)OC(=O)N(C)c1cc(-c2cncnc2)nn1C(F)F [Compound A59, isopropyl N-[2-(difluoromethyl)-5-pyrimidin-5-yl-pyrazol-3-yl]-N-methyl-carbamate] | 3 | 0 | 0 | 2 | 0 | 2 | 3 | 0 | 0 | 1 | 0 | 2 | 
CN(C(=O)OC(C)(C)C)c1cn(-c2cccnc2)nc1Cl [Compound A60, tert-butyl N-[3-chloro-1-(3-pyridyl)pyrazol-4-yl]-N-methyl-carbamate] | 4 | 1 | 0 | 2 | 0 | 2 | 4 | 3 | 2 | 4 | 2 | 3 | 
